Target: T1, Nav1.7 (or SCN9A) channel; HEK cells stably transfected with hSCN9A (Homo sapiens, UniProt Q15858)
T1 construct: expressed in transfected cells
Experiment: Nav1.7 block, PatchXpress 7000 automated whole-cell voltage clamp, estimated IC50 (EIC50)
Assay type: cell-based
Conditions: estimated IC50; hSCN9A HEK cells, PatchXpress platform; Examples 815-1040

T1 sequence (Q15858 whole entry): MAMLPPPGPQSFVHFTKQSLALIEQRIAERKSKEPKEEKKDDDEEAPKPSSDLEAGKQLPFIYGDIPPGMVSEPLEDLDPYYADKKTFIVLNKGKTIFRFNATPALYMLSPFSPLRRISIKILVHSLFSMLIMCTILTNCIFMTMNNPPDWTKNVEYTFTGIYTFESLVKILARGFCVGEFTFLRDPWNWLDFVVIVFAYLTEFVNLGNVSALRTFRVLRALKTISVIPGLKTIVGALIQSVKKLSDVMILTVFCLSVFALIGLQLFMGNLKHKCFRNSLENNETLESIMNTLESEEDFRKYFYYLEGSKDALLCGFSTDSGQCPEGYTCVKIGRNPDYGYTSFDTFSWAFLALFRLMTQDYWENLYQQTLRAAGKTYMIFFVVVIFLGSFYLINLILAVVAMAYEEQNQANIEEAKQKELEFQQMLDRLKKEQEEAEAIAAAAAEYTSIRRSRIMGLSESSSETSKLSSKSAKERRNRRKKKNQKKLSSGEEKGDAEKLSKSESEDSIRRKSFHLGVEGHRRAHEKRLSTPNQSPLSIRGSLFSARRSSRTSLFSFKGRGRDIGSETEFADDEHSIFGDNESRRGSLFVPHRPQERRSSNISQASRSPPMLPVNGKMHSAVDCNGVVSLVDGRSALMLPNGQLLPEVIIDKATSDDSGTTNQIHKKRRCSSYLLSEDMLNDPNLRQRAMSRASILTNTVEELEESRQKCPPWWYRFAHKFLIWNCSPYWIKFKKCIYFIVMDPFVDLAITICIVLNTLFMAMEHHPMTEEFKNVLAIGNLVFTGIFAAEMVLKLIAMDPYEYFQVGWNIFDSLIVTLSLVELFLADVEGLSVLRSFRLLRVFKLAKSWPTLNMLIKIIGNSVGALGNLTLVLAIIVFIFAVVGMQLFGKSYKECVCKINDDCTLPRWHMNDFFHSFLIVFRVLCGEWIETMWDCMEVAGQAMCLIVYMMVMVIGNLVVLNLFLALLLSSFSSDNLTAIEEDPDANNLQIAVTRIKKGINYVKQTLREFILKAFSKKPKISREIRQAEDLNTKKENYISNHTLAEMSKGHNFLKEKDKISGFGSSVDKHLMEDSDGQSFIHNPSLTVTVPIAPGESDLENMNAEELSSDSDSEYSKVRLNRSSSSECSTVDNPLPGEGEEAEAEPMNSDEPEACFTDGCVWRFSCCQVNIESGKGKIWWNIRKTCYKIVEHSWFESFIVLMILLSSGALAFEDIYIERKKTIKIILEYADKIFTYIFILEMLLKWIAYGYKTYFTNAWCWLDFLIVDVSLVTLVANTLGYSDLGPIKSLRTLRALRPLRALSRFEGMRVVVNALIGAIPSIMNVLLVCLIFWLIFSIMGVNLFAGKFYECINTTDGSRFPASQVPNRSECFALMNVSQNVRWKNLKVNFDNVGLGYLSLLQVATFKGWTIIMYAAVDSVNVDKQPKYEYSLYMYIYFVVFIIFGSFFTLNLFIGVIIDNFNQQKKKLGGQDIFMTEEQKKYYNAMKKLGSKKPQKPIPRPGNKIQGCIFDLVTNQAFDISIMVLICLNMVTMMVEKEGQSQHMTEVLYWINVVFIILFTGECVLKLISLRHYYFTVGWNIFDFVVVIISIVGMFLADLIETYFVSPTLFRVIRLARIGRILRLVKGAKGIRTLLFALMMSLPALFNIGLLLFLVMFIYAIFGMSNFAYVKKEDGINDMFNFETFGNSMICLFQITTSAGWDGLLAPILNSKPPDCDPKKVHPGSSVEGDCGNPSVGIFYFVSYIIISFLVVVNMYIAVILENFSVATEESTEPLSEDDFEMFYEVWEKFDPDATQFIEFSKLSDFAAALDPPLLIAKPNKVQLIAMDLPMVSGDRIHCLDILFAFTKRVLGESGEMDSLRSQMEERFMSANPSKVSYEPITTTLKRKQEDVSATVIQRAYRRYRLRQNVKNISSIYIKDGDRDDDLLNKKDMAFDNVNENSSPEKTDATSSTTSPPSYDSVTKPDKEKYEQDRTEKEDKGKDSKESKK

Row | SMILES | IC50 [nM]
1 | CCOc1n[nH]cc1-c1cc(Cl)ccc1Oc1cc(F)c(S(=O)(=O)Nc2cscn2)cc1F [Example 984, 4-[4-chloro-2-(3-ethoxy-1H-pyrazol-4-yl)phenoxy]-2,5-difluoro-N-1,3-thiazol-4-ylbenzenesulfonamide] | 560
2 | N#Cc1cc(S(=O)(=O)Nc2nccs2)ccc1Oc1ccccc1-c1cncnc1 [Example 985, 3-cyano-4-(2-pyrimidin-5-ylphenoxy)-N-1,3-thiazol-2-ylbenzenesulfonamide] | 2300
3 | N#Cc1cc(S(=O)(=O)Nc2nccs2)ccc1Oc1ccc(-c2cnn(CC(F)(F)F)c2N)cc1 [Example 986, 4-{4-[5-amino-1-(2,2,2-trifluoroethyl)-1H-pyrazol-4-yl]phenoxy}-3-cyano-N-1,3-thiazol-2-ylbenzenesulfonamide] | >10000
4 | N#Cc1cc(S(=O)(=O)Nc2ncns2)ccc1Oc1ccc(C(F)(F)F)cc1-c1cccc(CN2CC[C@@H](O)C2)c1 [Example 987, 3-cyano-4-{[3′-{[(3R)-3-hydroxypyrrolidin-1-yl]methyl}-5-(trifluoromethyl)biphenyl-2-yl]oxy}-N-1,2,4-thiadiazol-5-ylbenzenesulfonamide] | 1.1
5 | N#Cc1cc(S(=O)(=O)Nc2ncns2)ccc1Oc1ccc(C(F)(F)F)cc1-c1cccc(CN2CCC2)c1 [Example 988, 4-{[3′-(azetidin-1-ylmethyl)-5-(trifluoromethyl)biphenyl-2-yl]oxy}-3-cyano-N-1,2,4-thiadiazol-5-ylbenzenesulfonamide] | 0.7
6 | CC(=O)N1CC(n2nccc2-c2cc(F)ccc2Oc2cc(F)c(S(=O)(=O)Nc3cscn3)cc2Cl)C1 [Example 989, 4-{2-[1-(1-acetylazetidin-3-yl)-1H-pyrazol-5-yl]-4-fluorophenoxy}-5-chloro-2-fluoro-N-1,3-thiazol-4-ylbenzenesulfonamide] | 950
7 | N#Cc1cc(S(=O)(=O)Nc2ncc(Cl)s2)ccc1Oc1ccc(Cl)cc1-c1ccon1 [Example 990, 4-(4-chloro-2-isoxazol-3-ylphenoxy)-N-(5-chloro-1,3-thiazol-2-yl)-3-cyanobenzenesulfonamide] | 310
8 | N#Cc1cc(S(=O)(=O)Nc2ncc(Cl)s2)ccc1Oc1ccc(F)cc1-c1cccc(N)n1 [Example 991, 4-[2-(6-aminopyridin-2-yl)-4-fluorophenoxy]-N-(5-chloro-1,3-thiazol-2-yl)-3-cyanobenzenesulfonamide] | >10
9 | N#Cc1cc(S(=O)(=O)Nc2ncc(Cl)s2)ccc1Oc1cc(F)ccc1-c1ccn[nH]1 [Example 992, N-(5-chloro-1,3-thiazol-2-yl)-3-cyano-4-[5-fluoro-2-(1H-pyrazol-5-yl)phenoxy]benzenesulfonamide] | 540
10 | N#Cc1cnn(-c2ccc(Oc3ccc(S(=O)(=O)Nc4nccs4)cc3C#N)cc2)c1 [Example 994, 3-cyano-4-[4-(4-cyano-1H-pyrazol-1-yl)phenoxy]-N-1,3-thiazol-2-ylbenzenesulfonamide] | 9500
11 | COC(=O)N1CC(c2cc(Cl)ccc2Oc2ccc(S(=O)(=O)Nc3nccs3)cc2C#N)C1 [Example 995, methyl 3-(5-chloro-2-{2-cyano-4-[(1,3-thiazol-2-ylamino)sulfonyl]phenoxy}phenyl)azetidine-1-carboxylate] | 1300
12 | CCOC(=O)c1cnn(-c2ccc(Oc3ccc(S(=O)(=O)Nc4nccs4)cc3C#N)cc2)c1 [Example 996, ethyl 1-(4-{2-cyano-4-[(1,3-thiazol-2-ylamino)sulfonyl]phenoxy}phenyl)-1H-pyrazole-4-carboxylate] | 760
13 | N#Cc1cc(S(=O)(=O)Nc2ncns2)ccc1Oc1ccc(Cl)cc1-c1ccc(C(=O)O)cc1 [Example 999, 5′-chloro-2′-{2-cyano-4-[(1,2,4-thiadiazol-5-ylamino)sulfonyl]phenoxy}biphenyl-4-carboxylic acid] | 3300
14 | N#Cc1cc(S(=O)(=O)Nc2ncns2)ccc1Oc1ccc(Cl)cc1-c1cccc(CC(=O)O)c1 [Example 1000, (5′-chloro-2′-{2-cyano-4-[(1,2,4-thiadiazol-5-ylamino)sulfonyl]phenoxy}biphenyl-3-yl)acetic acid] | 130
15 | N#Cc1cc(S(=O)(=O)Nc2ncns2)ccc1Oc1ccc(Cl)cc1-c1ccc(CC(=O)O)cc1 [Example 1001, (5′-chloro-2′-{2-cyano-4-[(1,2,4-thiadiazol-5-ylamino)sulfonyl]phenoxy}biphenyl-4-yl)acetic acid] | 820
16 | N#Cc1cc(S(=O)(=O)Nc2ncns2)ccc1Oc1ccc(Cl)cc1-c1cccc(C(=O)O)c1 [Example 1002, 5′-chloro-2′-{2-cyano-4-[(1,2,4-thiadiazol-5-ylamino)sulfonyl]phenoxy}biphenyl-3-carboxylic acid] | 140
17 | COC(=O)c1cccc(-c2cc(Cl)ccc2Oc2ccc(S(=O)(=O)Nc3ncns3)cc2C#N)c1 [Example 1003, methyl 5′-chloro-2′-{2-cyano-4-[(1,2,4-thiadiazol-5-ylamino)sulfonyl]phenoxy}biphenyl-3-carboxylate] | 20
18 | N#Cc1cc(S(=O)(=O)Nc2ccc(F)cn2)ccc1Oc1ccc(F)cc1C1CC1 [Example 1004, 3-cyano-4-(2-cyclopropyl-4-fluorophenoxy)-N-(5-fluoropyridin-2-yl)benzenesulfonamide] | 7100

Row | SMILES | IC50 [nM]
19 | N#Cc1cc(S(=O)(=O)Nc2ccc(F)cn2)ccc1Oc1ccccc1C1CCCCO1 (centres unmarked) [Example 1005, 3-cyano-N-(5-fluoropyridin-2-yl)-4-[2-(tetrahydro-2H-pyran-2-yl)phenoxy]benzenesulfonamide] | >3000
20 | N#Cc1cc(S(=O)(=O)Nc2cccs2)ccc1Oc1ccccc1-c1ccccc1 [Example 1007, 4-(biphenyl-2-yloxy)-3-cyano-N-2-thienylbenzenesulfonamide] | 3300
21 | CN(C)C(=O)c1cccc(-c2ccccc2)c1Oc1ccc(S(=O)(=O)Nc2ncns2)cc1C#N [Example 1008, 2-{2-cyano-4-[(1,2,4-thiadiazol-5-ylamino)sulfonyl]phenoxy}-N,N-dimethylbiphenyl-3-carboxamide] | 740
22 | Cc1ncccc1-c1cc(Cl)ccc1Oc1ccc(S(=O)(=O)Nc2ncns2)cc1C#N [Example 1009, 4-[4-chloro-2-(2-methylpyridin-3-yl)phenoxy]-3-cyano-N-1,2,4-thiadiazol-5-ylbenzenesulfonamide] | 21
23 | Cc1nccnc1-c1cc(Cl)ccc1Oc1ccc(S(=O)(=O)Nc2ncns2)cc1C#N [Example 1010, 4-[4-chloro-2-(3-methylpyrazin-2-yl)phenoxy]-3-cyano-N-1,2,4-thiadiazol-5-ylbenzenesulfonamide] | 820
24 | Cc1cnccc1-c1cc(Cl)ccc1Oc1ccc(S(=O)(=O)Nc2ncns2)cc1C#N [Example 1011, 4-[4-chloro-2-(3-methylpyridin-4-yl)phenoxy]-3-cyano-N-1,2,4-thiadiazol-5-ylbenzenesulfonamide] | 28
25 | CN1CC(n2nccc2-c2cc(Cl)ccc2Oc2cc(F)c(S(=O)(=O)Nc3ncccn3)cc2Cl)C1 [Example 1012, 5-chloro-4-{4-chloro-2-[1-(1-methylazetidin-3-yl)-1H-pyrazol-5-yl]phenoxy}-2-fluoro-N-pyrimidin-2-ylbenzenesulfonamide] | 270
26 | Nc1cc(-c2cc(C(F)(F)F)ccc2Oc2ccc(S(=O)(=O)Nc3ccncn3)cc2Cl)ccn1 [Example 1013, 4-[2-(2-aminopyridin-4-yl)-4-(trifluoromethyl)phenoxy]-3-chloro-N-pyrimidin-4-ylbenzenesulfonamide] | 4.8
27 | Nc1cc(-c2cc(Cl)ccc2Oc2ccc(S(=O)(=O)Nc3cccnn3)cc2Cl)ccn1 [Example 1014, 4-[2-(2-aminopyridin-4-yl)-4-chlorophenoxy]-3-chloro-N-pyridazin-3-ylbenzenesulfonamide] | 10
28 | CN1CC(n2nccc2-c2cc(OC(F)(F)F)ccc2Oc2cc(F)c(S(=O)(=O)Nc3nncs3)cc2Cl)C1 [Example 1017, 5-chloro-2-fluoro-4-{2-[1-(1-methylazetidin-3-yl)-1H-pyrazol-5-yl]-4-(trifluoromethoxy)phenoxy}-N-1,3,4-thiadiazol-2-ylbenzenesulfonamide] | 2.1
29 | O=S(=O)(Nc1nncs1)c1ccc(Oc2ccc(Cl)cc2-c2ccnnc2)c(C(F)(F)F)c1 [Example 1018, 4-(4-chloro-2-pyridazin-4-ylphenoxy)-N-1,3,4-thiadiazol-2-yl-3-(trifluoromethyl)benzenesulfonamide] | 230
30 | Nc1n[nH]cc1-c1cc(Cl)ccc1Oc1cc(F)c(S(=O)(=O)Nc2ncccn2)cc1Cl [Example 1019, 4-[2-(3-amino-1H-pyrazol-4-yl)-4-chlorophenoxy]-5-chloro-2-fluoro-N-pyrimidin-2-ylbenzenesulfonamide] | 22
31 | Nc1cc(-c2cc(Cl)ccc2Oc2cc(F)c(S(=O)(=O)Nc3cscn3)cc2F)ccn1 [Example 1020, 4-[2-(2-aminopyridin-4-yl)-4-dchlorophenoxy]-2,5-ifluoro-N-1,3-thiazol-4-ylbenzenesulfonamide] | 19
32 | CC(C)(C#N)c1ccc(Oc2cc(F)c(S(=O)(=O)Nc3nncs3)cc2Cl)c(-c2ccnnc2)c1 [Example 1021, 5-chloro-4-[4-(1-cyano-1-methylethyl)-2-pyridazin-4-ylphenoxy]-2-fluoro-N-1,3,4-thiadiazol-2-ylbenzenesulfonamide] | 1300
33 | CN1CC(n2nccc2-c2cc(C(F)(F)F)ccc2Oc2cc(F)c(S(=O)(=O)Nc3cscn3)cc2F)C1 [Example 1023, 2,5-Difluoro-4-{2-[1-(1-methylazetidin-3-yl)-1H-pyrazol-5-yl]-4-(trifluoromethyl)phenoxy}-N-1,3-thiazol-4-ylbenzenesulfonamide] | 4
34 | N#Cc1cc(S(=O)(=O)Nc2ncns2)ccc1Oc1ccc(Cl)cc1-c1ccnc(OC2CCC2)c1 [Example 1025, 4-{4-Chloro-2-[2-(cyclobutyloxy)pyridin-4-yl]phenoxy}-3-cyano-N-1,2,4-thiadiazol-5-ylbenzenesulfonamide] | 4.1
35 | CN(C)c1cc(-c2cc(Cl)ccc2Oc2ccc(S(=O)(=O)Nc3ncns3)cc2C#N)ccn1 [Example 1026, 4-{4-Chloro-2-[2-(dimethylamino)pyridin-4-yl]phenoxy}-3-cyano-N-1,2,4-thiadiazol-5-ylbenzenesulfonamide] | 1.6

From patent US8541588B2, “Sulfonamide derivatives” (Pfizer Limited, priority 2009, dated 2013)
